Results on 3 molecules are retold here after article PMC7508583, “Discovery and Preclinical Development of Antigiardiasis Fumagillol Derivatives” (Antimicrobial Agents and Chemotherapy, 2020).

A short description of one data set: pH 3 degradation test. The format is physicochemical. The method, then:
The dramatic improvement in stability is not surprising, because the ester group of fumagillin is susceptible to hydrolysis at low pH. […] This should enable the administration of lower doses, reducing toxicity risks.
For accelerated temperature degradation tests at 75% relative humidity and at laboratory uncontrolled relative humidity, fumagillin and compounds 3 and 9 were incubated at 37°C under either controlled or uncontrolled humidity, and the samples were analyzed by HPLC every week for 4 weeks. Measurements were made in duplicate. Area-under-the-curve values were calculated to derive the percentage of compound remaining. For pH degradation, the compounds were dissolved in DMSO and mixed with pH 3.0 buffer. The samples were incubated at 25°C for up to 48 h. Samples were analyzed by HPLC every 2 h for the first 8 h and then after 24 and 48 h.

A short description of another data set: in vitro. Conditions: human; for efflux ratio at 120 min, 10 µM: Caco-2, pH 7.4; for Papp at 120 min, 10 µM: Caco-2, pH 7.4, Mean ± SE Papp. From the text: Next, we tested the permeation of the compounds across polarized Caco-2 cell monolayers, a method that is widely used as an in vitro model of the human small intestinal mucosa to predict the absorption of orally administered drugs ([63], [64]). With noninvasive intestinal infections, there is no need to establish a high plasma concentration. Since a high rate of uptake through the host gut lining could increase compound toxicity, we sought to reduce gut absorption. […] Both apical-to-basal and basal-to-apical permeation values were measured to obtain information about efflux. […] The efflux machinery is currently unknown.
Passage 36 Caco-2 cells were used. The cells were cultured in Dulbecco’s modified Eagle’s medium (DMEM; 5 ml of 100 mM sodium pyruvate, 5 ml of 100× nonessential amino acids, 5 ml of penicillin-streptomycin, and 100 ml of heat-inactivated fetal bovine serum added to 385 ml of DMEM aseptically and mixed thoroughly), pH 7.4, at 37°C in 5% CO2. DMEM (250 μl) was added to the basal compartment of 96-well multiscreen Caco-2 cell plate consisting of high-pore-density polycarbonate (Millipore) with a 0.4-μm pore size and a 0.11-cm^2 active membrane area. The cells were seeded at a density of 12,000 cells/well (0.16 × 10^6 cells/ml) in the apical wells, with one well containing only medium as blank. The Caco-2 cell plate was placed in a CO2 incubator at 37°C for cell proliferation. On the day of assay, the medium was removed, washed twice with Hanks balanced salt solution (HBSS) buffer supplemented with 2% bovine serum albumin (BSA), pH 7.4, and incubated with the HBSS buffer for 30 min at 37°C. Wells with transepithelial electrical resistance values of greater than 230 Ω · cm^2 were selected for the experiments. […] The assay was performed in duplicate.
Seventy-five microliters of the test compounds was added to the apical wells, and 250 μl of HBSS buffer with 2% BSA was added to the basal wells. The plate was incubated in a CO2 incubator with shaking on a plate shaker at 150 rpm for 120 min, after which 25 μl of the basal samples was collected and processed.
Two hundred fifty microliters of test compounds was added to the basal wells, and 75 μl of HBSS buffer with 2% BSA was added to the apical wells. The plate was incubated in a CO2 incubator with shaking on a plate shaker at 150 rpm for 120 min, after which 25 μl of the apical samples was collected and processed.
For sample processing, a single-point calibration curve in HBSS buffer with 2% BSA was used. Donor samples were diluted 1:1 with HBSS containing 2% BSA, and receiver samples were diluted with 1:1 HBSS buffer and precipitated with 200 μl of acetonitrile containing internal standard. The samples were vortexed for 5 min at 1,000 rpm and centrifuged at 4,000 rpm for 10 min. One hundred microliters of the supernatant was diluted with 200 μl of water and analyzed by LC-MS/MS (with a Shimadzu ultrafast liquid chromatograph and an API 4000 LC-MS/MS system).
The apparent permeation coefficients (Papp) were calculated as Papp = (dQ/dT) × (1/C0) × (1/A), where dQ is the amount permeated to the receiver compartment of the 96-well plate, dT is the time of compound incubation, C0 is the initial compound concentration in the donor compartment of the well, and A is the surface area of the monolayer.

A further data set has as its target T1, human MetAP2 (Homo sapiens, UniProt P50579).
T1 construct: purchased Bio-Techne/R&D Systems
As to the kind of experiment: MetAP2 fluorescence assay. The format is biochemical. Conditions: for IC50 of compound/IC50 of fumagillin: human MetAP2. The method, then:
Based on the available crystal structures of MetAP2 complexes, the fumagillol core binds in a crowded environment, forming exquisite electrostatic interactions. Therefore, there is little room for the core fumagillol scaffold to adopt a different mode of binding. In contrast, the R group at C-6 can vary substantially because it is mostly solvent exposed. The L groups bind in a narrow site at the active-site entrance.
Recombinant human MetAP2 (Bio-Techne/R&D Systems) was diluted to 10 μg/ml in the assay buffer (50 mM HEPES, 0.1 mM CoCl2, 100 mM NaCl, pH 7.5). The substrate H-Met-Gly-Pro-7-amido-4-methylcoumarin (Bio-Techne/R&D Systems) was diluted to 500 μM with 2 μg/ml of the coupling enzyme, recombinant human dipeptidyl peptidase 4 (Bio-Techne/R&D Systems), in assay buffer. Fifty microliters of 10-μg/ml recombinant human MetAP2 was loaded into a flat-bottom black 96-well plate (Greiner Bio), and the reaction was initiated by adding 50 μl of the substrate/dipeptidyl peptidase 4 mixture. The reaction mixture was incubated at room temperature for 10 min, and the fluorescence was measured for 5 min at excitation and emission wavelengths of 380 nm and 460 nm, respectively, in the kinetic mode. For IC50 determination, 0.5 μl inhibitor solution was added to the reaction mixture. […] The reaction rates were fitted to a 4-parameter logistic nonlinear regression model using the KaleidaGraph tool, yielding the IC50 values and standard error.

[1] abbreviates: recombinant human MetAP2, fluorescence assay, read-out: Mean ± SE IC50, inhibition of human MetAP2.

The structures appear in SMILES notation. Like-named read-outs stand apart in the source and are kept apart here.

T1 sequence (P50579 whole entry): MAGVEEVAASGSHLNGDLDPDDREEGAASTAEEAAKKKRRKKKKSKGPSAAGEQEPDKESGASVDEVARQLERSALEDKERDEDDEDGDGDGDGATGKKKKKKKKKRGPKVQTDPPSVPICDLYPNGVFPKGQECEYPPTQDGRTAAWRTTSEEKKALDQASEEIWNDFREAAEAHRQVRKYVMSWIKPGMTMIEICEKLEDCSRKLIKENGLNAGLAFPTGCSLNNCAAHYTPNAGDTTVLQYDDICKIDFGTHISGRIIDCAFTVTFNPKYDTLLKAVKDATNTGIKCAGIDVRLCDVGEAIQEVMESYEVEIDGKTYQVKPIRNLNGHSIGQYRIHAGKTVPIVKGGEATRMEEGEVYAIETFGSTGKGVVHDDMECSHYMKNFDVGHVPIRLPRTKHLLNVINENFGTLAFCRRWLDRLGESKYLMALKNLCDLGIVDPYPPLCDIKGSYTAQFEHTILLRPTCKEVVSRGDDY

In the data set “pH 3 degradation test” (buffer, pH 3), `COC1C(OC(=O)NC(=O)CN2CCOCC2)CCC2(CO2)C1C1(C)OC1CC=C(C)C` (stereo not shown) [Compound 3] gave a half-life of 17.2 ± 2.26 h. Besides, the efflux ratio at 120 min, 10 µM in the data set “in vitro” came out at 1.95. Moreover, the Papp at 120 min, 10 µM in the data set “in vitro” (apical to basal) amounted to 15.8 ± 0.94 ×10⁻⁶ cm/s; in “in vitro” (basal to apical), 30.4 ± 4.35 ×10⁻⁶ cm/s. Also, the “IC50 of compound/IC50 of fumagillin” value against human MetAP2 worked out at 1.68. The concentration for half-maximal inhibition (IC50) on human MetAP2 (setting [1]) is 0.67 ± 0.02 nM.

For the molecule `CO[C@@H]1[C@H](OC(=O)Nc2ccc(C(=O)O)cc2)CC[C@]2(CO2)[C@H]1[C@@]1(C)O[C@@H]1CC=C(C)C` [Compound 9, 4-(((((3R,4S,5S,6R)-5-methoxy-4-((2R,3R)-2-methyl-3-(3-methylbut-2-en-1-yl)oxiran-2-yl)-1-oxaspiro[2.5]octan-6-yl)oxy)carbonyl)amino)benzoic acid], in “pH 3 degradation test” (buffer, pH 3), the half-life is 43.2 ± 1.45 h. Also, the Papp at 120 min, 10 µM turned out to be 12.6 ± 0.63 ×10⁻⁶ cm/s in “in vitro” (apical to basal) and 23.6 ± 8.14 ×10⁻⁶ cm/s in “in vitro” (basal to apical). The molecule further came in with an IC50 on human MetAP2 of 1.1 ± 0.3 nM.

As to `CO[C@@H]1[C@H](OC(=O)/C=C/C=C/C=C/C=C/C(=O)O)CC[C@]2(CO2)[C@H]1[C@@]1(C)O[C@@H]1CC=C(C)C` [Fumagillin, reference compound], in “pH 3 degradation test” (pH 3.0 buffer, pH 3, 25°C, read-out: Mean ± SE half-life at pH 3 and 25°C (converted)), the half-life was 1.42 ± 0.05 h. Besides, in “in vitro”, the efflux ratio at 120 min, 10 µM was found to be 2.13. The Papp at 120 min, 10 µM in “in vitro” (apical to basal, Caco-2, 10 μM, 120 min) was 23.7 ± 2.52 ×10⁻⁶ cm/s; in “in vitro” (basal to apical, Caco-2, 10 μM, 120 min), 48.8 ± 9.13 ×10⁻⁶ cm/s. Further, the “IC50 of compound/IC50 of fumagillin” value against human MetAP2 was found to be 1. Moreover, the IC50 on human MetAP2 (setting [1]) is 0.4 ± 0.03 nM.
